Consider 22 molecules from ChEMBL document CHEMBL1155109, “Discovery of 4-amino and 4-hydroxy-1-aroylindoles as potent tubulin polymerization inhibitors” (J Med Chem, 2008).

The test system of one test is KB. Kind of test: Growth inhibition of human KB cells after 72 hrs by methylene blue dye assay. The class given is functional, cell-based.
The subject of the next test is NCI-H460. The experiment in a line: Growth inhibition of human H460 cells after 72 hrs by methylene blue dye assay. It is filed as functional, cell-based. Conditions: NCI-H460, 72 h.
In a further test the test system is MKN-45. The experiment in a line: Growth inhibition of human MKN45 cells after 72 hrs by methylene blue dye assay. The class given is functional, cell-based. Conditions: MKN-45, 72 h.
The nature of test [1]: Growth inhibition of P-gp 170/MDR overexpressing human KB-vin10 cells after 72 hrs by methylene blue dye assay. It is filed as functional. To be noted: KB-VIN10, 72 h.
Test [2] can be described thus: Inhibition of microtubule associated protein rich tubulin polymerization.
Test [3] in a line: Displacement of [3H]colchicine from microtubule associated protein rich tubulin at 1 uM.
Test [4] in a line: Displacement of [3H]colchicine from microtubule associated protein rich tubulin at 5 uM. On the technique in general: In a radioligand displacement assay an active substance lowers the binding of a labelled ligand.

By IC50 is commonly meant the concentration that gives 50% inhibition. The low end stands for inhibition by little substance, the high end for a need for much substance. As for `COc1cc(C(=O)n2ccc3cc(CO)ccc32)cc(OC)c1OC`, the IC50 (in the test on KB; in the test on NCI-H460; in the test with MKN-45; in test [1]) was over 5000 nM in each case.

For `COc1cc(C(=O)n2ccc3cc4c(cc32)OCO4)cc(OC)c1OC`, the IC50 in the test on KB came to 575 nM; in the test with NCI-H460 it was 559 nM; with MKN-45, 521 nM; in test [1], 587 nM.

A word on the inhibition: it is the change of the read-out against control, counted positive when it falls. For `COc1cc(C(=O)n2c(C)cc3c(O)c(OC)ccc32)cc(OC)c1OC`, the IC50 was 0.3 nM in the test with KB; 0.5 nM in the test on NCI-H460; 0.6 nM in the test with MKN-45; 0.3 nM in test [1]; 600 nM in test [2]. The inhibition is 94% in test [3] and 97% in test [4].

As to `COc1cc2c(c(OC)c1OC)-c1ccc(OC)c(=O)cc1[C@@H](NC(C)=O)CC2` [COLCHICINE], the IC50 in the test on KB is 11.4 nM; with MKN-45, 11 nM; in test [1] it was 125 nM; in test [2], 3000 nM.

With `COc1ccc2c(c1)CCN2C(=O)c1cc(OC)c(OC)c(OC)c1`, the half-maximal inhibitory concentration (IC50) in the test on KB is 89 nM; in the test on NCI-H460, 98 nM; in the test with MKN-45, 53 nM; in test [1] it was 84 nM; in test [2] it was 2600 nM. Also, the inhibition in test [3] was 27%; in test [4], 55%.

Take `COc1cc(C(=O)n2ccc3c([N+](=O)[O-])c(OC)ccc32)cc(OC)c1OC`: the IC50 (in the test on KB; in the test on NCI-H460; in the test on MKN-45; in test [1]) was over 5000 nM each time.

Regarding `COc1cc(C(=O)n2c(C)cc3cc(N)ccc32)cc(OC)c1OC`, the IC50 with KB worked out at 345 nM; in the test with NCI-H460 it was 334 nM; with MKN-45 it was 156 nM; in test [1], 312 nM.

On to `COc1cc(C(=O)n2ccc3cc(C=O)ccc32)cc(OC)c1OC`, for which the IC50 (with KB; in the test on NCI-H460; in the test with MKN-45; in test [1]) was over 5000 nM each time.

Take `COc1ccc(/C=C\c2cc(OC)c(OC)c(OC)c2)cc1O` [COMBRETASTATIN A4]: the IC50 with KB worked out at 2.2 nM; in the test with NCI-H460, 2.8 nM; with MKN-45 it was 5.6 nM. Further, the inhibition was 85% in test [3] and 93% in test [4].

Take `COc1ccc2c(c1)cc(CO)n2C(=O)c1cc(OC)c(OC)c(OC)c1`: the IC50 (with KB; with NCI-H460; in the test with MKN-45; in test [1]) was over 5000 nM throughout.

For the molecule `COc1cc(C(=O)n2ccc3cc(CN(C)C)ccc32)cc(OC)c1OC`, the concentration for half-maximal inhibition (IC50) (with KB; with NCI-H460; in the test with MKN-45; in test [1]) was over 5000 nM throughout.

Turning to `COc1ccc(NC(=O)c2cc(OC)c(OC)c(OC)c2)cc1`, the IC50 (in the test on KB; in the test with NCI-H460; with MKN-45; in test [1]) was over 5000 nM throughout.

With `COc1ccc2c(c1)CCCN2C(=O)c1cc(OC)c(OC)c(OC)c1`, the IC50 with KB was 596 nM; in the test on NCI-H460 it was 652 nM; in the test with MKN-45, 395 nM; in test [1] it was 586 nM; in test [2] it was over 5000 nM.

For `COc1ccc2c(c1)CC(C)N2C(=O)c1cc(OC)c(OC)c(OC)c1` (configuration not stated), the 50% inhibitory concentration (IC50) in the test on KB turned out to be 370 nM; in the test with NCI-H460 it was 413 nM; with MKN-45, 257 nM; in test [1], 372 nM.

For `CCOC(=O)c1cc2cc(OC)ccc2n1C(=O)c1cc(OC)c(OC)c(OC)c1`, the IC50 turned out to be 230 nM in the test with KB, 198 nM in the test on NCI-H460, 101 nM in the test on MKN-45 and 185 nM in test [1].

For `COC(=O)c1ccc2c(ccn2C(=O)c2cc(OC)c(OC)c(OC)c2)c1`, the IC50 in the test with KB was over 5000 nM; in the test on NCI-H460, over 5000 nM; in the test with MKN-45, over 5000 nM; in test [1], 5000 nM.

As to `COc1cc(C(=O)n2ccc3cc(C)ccc32)cc(OC)c1OC`, the IC50 with KB was determined as 371 nM; in the test with NCI-H460, 353 nM; in the test with MKN-45 it was 314 nM; in test [1], 400 nM.

For `COc1ccc2c(c1)c(CN(C)C)cn2C(=O)c1cc(OC)c(OC)c(OC)c1`, the IC50 (with KB; with NCI-H460; in the test with MKN-45; in test [1]) was over 5000 nM throughout.

For the molecule `CCOC(=O)c1c(C)n(C(=O)c2cc(OC)c(OC)c(OC)c2)c2ccc(OC)cc12`, the IC50 (in the test with KB; in the test with NCI-H460; in the test with MKN-45; in test [1]) was over 5000 nM in each case.

Consider `COc1cc(C(=O)n2ccc3c(N)c(OC)ccc32)cc(OC)c1OC`, for which the IC50 with KB was 1.2 nM; with NCI-H460, 5.4 nM; with MKN-45 it was 3.1 nM; in test [1] it was 2.4 nM; in test [2], 900 nM. Also, the inhibition in test [3] turned out to be 71%; in test [4], 93%.

As for `COc1ccc2c(c1)cc(C(C#N)N(C)C)n2C(=O)c1cc(OC)c(OC)c(OC)c1` (configuration not stated), the IC50 (in the test on KB; in the test with NCI-H460; in the test with MKN-45; in test [1]) was over 5000 nM each time.

Turning to `COc1cc(C(=O)n2c(C)cc3cc(N(C)C)ccc32)cc(OC)c1OC`, the IC50 turned out to be 42 nM with KB; 52 nM with NCI-H460; 41 nM with MKN-45; 38 nM in test [1]; 1500 nM in test [2]. The inhibition was 72% in test [3] and 89% in test [4].
